Source: patent publication US20240108557A1, “TOPICAL COMPOSITION USEFUL FOR THE DAILY CARE OF ACNE-PRONE SKIN” (Pierre Fabre Dermo-Cosmetique, priority 2021, published 2024)

System: Stratum corneum
Experiment: AFM elastic modulus of Stratum corneum in skin explants (keratolytic effect)
Set-up: species or system human
Details: three topical applications, succinic acid 0.6 wt %, lactic acid 0.36 wt %, alone or combined (ratio 1.67)
Description: Keratolytic effect was assessed by observing the skin biomechanical properties modulation (skin stiffness modulation) induced by the tested agents using Atomic Force Microscopy (AFM) in skin explants. • 1 explant by donor and treatment • 3 distinct areas were measured by explant • A minimum of 12 measures by aera
Skin punchs of 1.2 cm were made from breast skin of women between 35 and 43 years old. […] First and second application during 1 hour, and the third-one during 3 hours. […] Mechanical properties of skin explants cryosections have been assessed, at Stratum corneum and epidermis areas, by AFM measurements.
AFM indentation experiments were carried out with a Resolve Bioscope (Bruker Nano Surface, Santa Barbara, CA) that was mounted on an inverted optical DM18 (Leica) and a top view Bruker. All measurements of skin stiffness were performed using cantilevers with conical tips. The cantilever moved with the relief of the skin surface. This deformation was quantified by the deflection of the laser beam who are correlated with biomechanical parameters of skin surface samples. Quantitative measure of elastic modulus was used to assess Stratum corneum or epidermis cell-cell junctions stiffness after treatment.

| SMILES | inhibition of elastic modulus of Stratum corneum (stiffness reduction) compared to untreated control |
| --- | --- |
| CC(O)C(=O)O (centres unmarked) [lactic acid] | did not show any significant effect |
| O=C(O)CCC(=O)O [succinic acid] | did not show any significant effect |
